# Data: patent US20230338378A1, “Methods of Administering Myosin Inhibitors” (MYOKARDIA, INC., priority 2022, published 2023)
# Like-named read-outs stand apart in the source and are kept apart here.
# Assays:
# [1] = Clinical pharmacokinetics of mavacamten; format: in vivo, human; conditions: for half-life: plasma, read-out: terminal half-life (converted)
# CYP2C19 [2] = biological target: T1, CYP2C19 (Homo sapiens, UniProt P33261); experiment: In vitro CYP inhibition; format: in vitro ADME; conditions: In Vitro Studies; clinically relevant concentrations
# healthy volunteers = experiment: Cardiac electrophysiology (QTc) in healthy volunteers; format: in vivo, human
# Source text: The mechanism of the QT prolongation effect is not known.
# CYP2D6 = CYP2D6 (Homo sapiens, UniProt P10635); experiment: In vitro CYP inhibition; format: in vitro ADME; conditions: In Vitro Studies; clinically relevant concentrations
# lymphocyte = experiment: Human in vitro lymphocyte clastogenicity assay; format: cell-based
# pregnant rabbits = experiment: Embryo-fetal development study in pregnant rabbits; format: in vivo, rabbit
# Method: Visceral findings consisted of malformations of the great vessels (dilatation of pulmonary trunk and/or aortic arch). Skeletal malformations consisted of higher incidences of fused sternebrae at ≥1.2 mg/kg/day. Plasma exposure (AUC) at the no-effect dose for embryo-fetal development in rabbits is 0.4 times the exposure in humans at the MRHD.
# CYP2C19 [3] = biological target: T1, CYP2C19; experiment: Concomitant use with weak CYP2C19 inhibitor omeprazole; format: in vivo; design: Mavacamten is hepatically metabolized predominantly via CYP2C19 (74%), CYP3A4 (18%) and CYP2C9 (8%); from tissue; host or cells: liver of human subjects in vivo, or a Simcyp virtual population; conditions: mavacamten 15 mg with omeprazole 20 mg once daily; healthy CYP2C19 NMs and RMs
# MATE2-K = MATE2-K (Homo sapiens, UniProt Q86VL8); experiment: In vitro transporter inhibition; format: in vitro ADME; conditions: In Vitro Studies
# [4] = Pharmacokinetics in hepatic impairment; format: in vivo, human; conditions: mild (Child-Pugh A) or moderate (Child-Pugh B) hepatic impairment vs normal hepatic function
# [5] = system: organic anion transporters (OATs); experiment: In vitro transporter inhibition; format: in vitro ADME; conditions: In Vitro Studies
# [6] = Human experience of overdose; format: in vivo
# Method: (§1) Human experience of overdose with MAVACAMTEN is limited. MAVACAMTEN has been given as a single dose of up to 144 mg in patients with HCM. […] In healthy subjects, doses of up to 25 mg have been administered for up to 25 days, with 3 of 8 participants treated at the 25 mg dose level experiencing 20% or greater reductions in LVEF. An infant death was reported after accidental ingestion of three 15 mg capsules.
# [7] = Excretion after a single 25 mg dose of radiolabeled mavacamten; format: in vivo; conditions: single 25 mg dose of radiolabeled mavacamten
# Method: Following a single 25 mg dose of radiolabeled mavacamten, 7% of the dose was recovered in feces (1% unchanged) and 85% in urine (3% unchanged).
# CYP2C9 = CYP2C9 (Homo sapiens, UniProt P11712); experiment: In vitro CYP inhibition; format: in vitro ADME; conditions: In Vitro Studies; clinically relevant concentrations
# dogs = experiment: Oral animal toxicology at multiple dose levels; format: in vivo
# Method: (§2) The safety of mavacamten has been evaluated in rats and dogs at multiple dose levels (0.06 to 10 mg/kg/day) orally. […] Plasma exposures (AUC) at the NOAEL in rats and dogs were 0.1 and 0.3 times, respectively, human exposure (AUC) at the MRHD.
# rats = experiment: Oral animal toxicology at multiple dose levels; format: in vivo
# Method: as §2
# [8] = system: bacterial reverse mutation; experiment: Bacterial reverse mutation test (Ames test); format: cell-based
# Solubility = format: physicochemical
# rat = experiment: Rat in vivo micronucleus assay
# P-gp = P-gp (Homo sapiens, UniProt P08183); experiment: In vitro transporter inhibition; format: in vitro ADME; conditions: In Vitro Studies
# [9] = system: organic cation transporters (OCTs); experiment: In vitro transporter inhibition; format: in vitro ADME; conditions: In Vitro Studies
# CYP3A4 = CYP3A4 (Homo sapiens, UniProt P08684); experiment: In vitro CYP inhibition; format: in vitro ADME; conditions: In Vitro Studies; clinically relevant concentrations
# pregnant rats = experiment: Pre/postnatal development study in rats; format: in vivo, rat
# Method: In a pre/postnatal development study, mavacamten was administered orally to pregnant rats (0.3, to 1.5 mg/kg/day) from gestation Day 6 to lactation/post-partum Day 20.
# CYP2C19 [10] = biological target: T1, CYP2C19; experiment: Metabolism through CYP enzymes
# CYP1A2 = CYP1A2 (Homo sapiens, UniProt P05177); experiment: In vitro CYP inhibition; format: in vitro ADME; conditions: In Vitro Studies
# healthy subjects = experiment: Doses of up to 25 mg for up to 25 days in healthy subjects; format: in vivo; conditions: 25 mg dose level for up to 25 days
# Method: as §1
# T1 sequence (P33261 whole entry): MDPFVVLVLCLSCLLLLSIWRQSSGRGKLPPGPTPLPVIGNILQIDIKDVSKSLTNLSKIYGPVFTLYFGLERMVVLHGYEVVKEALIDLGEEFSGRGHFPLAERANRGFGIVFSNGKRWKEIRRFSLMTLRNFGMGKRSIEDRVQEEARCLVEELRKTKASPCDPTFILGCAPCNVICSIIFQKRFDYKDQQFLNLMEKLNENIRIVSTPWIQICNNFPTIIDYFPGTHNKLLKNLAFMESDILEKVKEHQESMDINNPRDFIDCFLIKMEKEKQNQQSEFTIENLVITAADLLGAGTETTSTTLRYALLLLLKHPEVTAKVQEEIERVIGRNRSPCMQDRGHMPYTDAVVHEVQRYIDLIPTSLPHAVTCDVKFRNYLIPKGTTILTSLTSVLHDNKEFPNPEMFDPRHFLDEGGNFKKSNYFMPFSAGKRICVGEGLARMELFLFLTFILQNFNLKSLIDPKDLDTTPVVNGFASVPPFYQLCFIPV
# CYP3A4, sequence (P08684 whole entry): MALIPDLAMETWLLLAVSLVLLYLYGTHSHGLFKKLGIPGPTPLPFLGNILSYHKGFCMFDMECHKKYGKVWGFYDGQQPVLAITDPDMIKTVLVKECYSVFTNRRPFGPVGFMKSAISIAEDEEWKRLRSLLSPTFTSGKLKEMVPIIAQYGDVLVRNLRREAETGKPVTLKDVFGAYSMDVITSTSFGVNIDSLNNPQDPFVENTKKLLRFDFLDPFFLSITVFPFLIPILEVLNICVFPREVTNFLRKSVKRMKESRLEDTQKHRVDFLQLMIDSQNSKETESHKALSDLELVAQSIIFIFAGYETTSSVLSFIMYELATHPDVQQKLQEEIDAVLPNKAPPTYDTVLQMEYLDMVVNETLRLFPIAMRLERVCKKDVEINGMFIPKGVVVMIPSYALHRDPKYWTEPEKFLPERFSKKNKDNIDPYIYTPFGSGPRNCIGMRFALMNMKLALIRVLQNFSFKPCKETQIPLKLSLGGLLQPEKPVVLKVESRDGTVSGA
# CYP2D6, sequence (P10635 whole entry): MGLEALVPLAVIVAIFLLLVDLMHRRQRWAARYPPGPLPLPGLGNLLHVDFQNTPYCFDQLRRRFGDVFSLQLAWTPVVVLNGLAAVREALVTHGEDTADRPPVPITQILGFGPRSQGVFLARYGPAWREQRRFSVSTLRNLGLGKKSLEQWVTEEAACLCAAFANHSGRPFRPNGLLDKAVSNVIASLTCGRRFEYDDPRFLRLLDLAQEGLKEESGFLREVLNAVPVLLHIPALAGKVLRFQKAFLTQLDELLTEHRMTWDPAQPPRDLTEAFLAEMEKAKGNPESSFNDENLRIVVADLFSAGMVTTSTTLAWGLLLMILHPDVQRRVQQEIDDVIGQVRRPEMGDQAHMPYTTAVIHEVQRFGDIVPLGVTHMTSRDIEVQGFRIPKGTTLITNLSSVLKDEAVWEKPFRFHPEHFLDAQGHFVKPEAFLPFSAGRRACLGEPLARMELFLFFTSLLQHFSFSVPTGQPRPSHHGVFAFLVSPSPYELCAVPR
# MATE2-K, sequence (Q86VL8 1-566 isoform Q86VL8-3): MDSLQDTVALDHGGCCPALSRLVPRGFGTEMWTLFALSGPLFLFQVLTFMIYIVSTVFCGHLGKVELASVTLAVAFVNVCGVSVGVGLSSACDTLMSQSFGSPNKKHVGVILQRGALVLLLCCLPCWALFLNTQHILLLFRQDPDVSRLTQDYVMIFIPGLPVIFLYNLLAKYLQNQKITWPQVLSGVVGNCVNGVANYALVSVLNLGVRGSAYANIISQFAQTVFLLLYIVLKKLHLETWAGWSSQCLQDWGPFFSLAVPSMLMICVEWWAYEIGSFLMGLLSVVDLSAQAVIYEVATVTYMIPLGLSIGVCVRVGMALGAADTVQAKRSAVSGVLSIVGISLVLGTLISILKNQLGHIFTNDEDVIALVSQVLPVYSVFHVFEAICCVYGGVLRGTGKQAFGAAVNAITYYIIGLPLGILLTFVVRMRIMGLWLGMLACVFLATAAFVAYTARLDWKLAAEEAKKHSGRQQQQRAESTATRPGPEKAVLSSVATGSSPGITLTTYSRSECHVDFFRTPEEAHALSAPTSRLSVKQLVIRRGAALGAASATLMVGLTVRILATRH
# P-gp, sequence (P08183 whole entry): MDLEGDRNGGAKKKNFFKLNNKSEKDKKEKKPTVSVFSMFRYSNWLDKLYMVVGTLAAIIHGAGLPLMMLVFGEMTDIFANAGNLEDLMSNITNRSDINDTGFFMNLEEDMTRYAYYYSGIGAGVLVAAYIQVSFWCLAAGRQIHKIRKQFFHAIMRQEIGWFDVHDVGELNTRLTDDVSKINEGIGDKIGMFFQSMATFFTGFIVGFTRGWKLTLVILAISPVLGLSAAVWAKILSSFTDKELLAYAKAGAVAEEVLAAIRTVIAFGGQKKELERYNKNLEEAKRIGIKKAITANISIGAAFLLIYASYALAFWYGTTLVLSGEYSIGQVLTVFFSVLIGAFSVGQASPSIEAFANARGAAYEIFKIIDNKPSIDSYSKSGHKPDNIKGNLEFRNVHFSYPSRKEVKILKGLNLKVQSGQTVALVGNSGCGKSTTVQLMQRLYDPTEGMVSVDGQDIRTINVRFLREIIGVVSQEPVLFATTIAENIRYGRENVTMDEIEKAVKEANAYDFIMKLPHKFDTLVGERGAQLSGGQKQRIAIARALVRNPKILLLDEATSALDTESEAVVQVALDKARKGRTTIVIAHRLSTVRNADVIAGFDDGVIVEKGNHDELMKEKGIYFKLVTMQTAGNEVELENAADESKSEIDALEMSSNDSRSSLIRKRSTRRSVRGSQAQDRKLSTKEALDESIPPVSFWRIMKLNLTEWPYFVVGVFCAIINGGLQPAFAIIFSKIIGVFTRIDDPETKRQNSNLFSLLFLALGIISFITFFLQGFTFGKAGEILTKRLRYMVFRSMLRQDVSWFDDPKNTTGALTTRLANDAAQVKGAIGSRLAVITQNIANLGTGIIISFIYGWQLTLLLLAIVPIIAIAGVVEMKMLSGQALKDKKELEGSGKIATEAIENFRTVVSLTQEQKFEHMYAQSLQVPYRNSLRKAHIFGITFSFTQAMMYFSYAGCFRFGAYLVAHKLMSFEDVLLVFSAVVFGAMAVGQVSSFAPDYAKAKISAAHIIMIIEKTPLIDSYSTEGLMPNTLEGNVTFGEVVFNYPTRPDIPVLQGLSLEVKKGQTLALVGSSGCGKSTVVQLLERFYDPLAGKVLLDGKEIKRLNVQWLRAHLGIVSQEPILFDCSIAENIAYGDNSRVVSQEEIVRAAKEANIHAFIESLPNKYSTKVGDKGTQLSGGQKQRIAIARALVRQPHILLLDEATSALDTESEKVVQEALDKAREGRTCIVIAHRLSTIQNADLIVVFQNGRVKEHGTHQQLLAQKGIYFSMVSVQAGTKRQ
# CYP2C9, sequence (P11712 whole entry): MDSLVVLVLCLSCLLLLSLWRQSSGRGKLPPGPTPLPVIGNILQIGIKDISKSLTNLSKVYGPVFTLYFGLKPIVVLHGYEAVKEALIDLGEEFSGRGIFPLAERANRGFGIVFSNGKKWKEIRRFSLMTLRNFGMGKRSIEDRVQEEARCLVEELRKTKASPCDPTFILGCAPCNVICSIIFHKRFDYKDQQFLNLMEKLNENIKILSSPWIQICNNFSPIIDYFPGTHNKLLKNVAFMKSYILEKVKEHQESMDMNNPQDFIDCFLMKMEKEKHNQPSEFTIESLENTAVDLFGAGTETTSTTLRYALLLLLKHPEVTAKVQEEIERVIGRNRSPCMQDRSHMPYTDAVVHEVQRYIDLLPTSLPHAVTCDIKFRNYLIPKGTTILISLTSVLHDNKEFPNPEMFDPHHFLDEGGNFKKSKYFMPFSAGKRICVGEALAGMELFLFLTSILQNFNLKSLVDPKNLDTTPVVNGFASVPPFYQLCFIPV
# CYP1A2, sequence (P05177 whole entry): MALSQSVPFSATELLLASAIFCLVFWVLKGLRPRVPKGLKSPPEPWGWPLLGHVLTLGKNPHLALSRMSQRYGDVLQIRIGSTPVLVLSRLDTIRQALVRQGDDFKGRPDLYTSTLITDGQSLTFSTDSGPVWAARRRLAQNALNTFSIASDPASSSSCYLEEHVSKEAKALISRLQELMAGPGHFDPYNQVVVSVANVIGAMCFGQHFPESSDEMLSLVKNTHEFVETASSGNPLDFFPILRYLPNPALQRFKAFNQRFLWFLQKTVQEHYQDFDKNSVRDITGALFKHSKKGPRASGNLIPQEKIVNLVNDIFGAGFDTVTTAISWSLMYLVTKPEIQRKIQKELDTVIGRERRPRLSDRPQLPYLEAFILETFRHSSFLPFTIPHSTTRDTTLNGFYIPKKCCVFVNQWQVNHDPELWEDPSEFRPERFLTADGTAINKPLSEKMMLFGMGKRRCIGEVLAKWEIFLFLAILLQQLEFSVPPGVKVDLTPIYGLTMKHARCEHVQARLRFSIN
structure (smiles),measurement,setting,value
"CC(C)n1c(=O)cc(N[C@@H](C)c2ccccc2)[nH]c1=O [mavacamten, (S)-3-Isopropyl-6-((1-phenylethyl)amino)pyrimidine-2,4(1H,3H)-dione]",accumulation ratio for AUC,[1]; CYP2C19 NMs,about 7 fold
same,accumulation ratio for Cmax,[1]; CYP2C19 NMs,about 2 fold
same,pharmacokinetics with a high fat meal,[1]; Effect of Food,No clinically significant differences
same,"pharmacokinetics by age (18-82 years), sex, race, ethnicity, or mild to moderate renal impairment",[1]; Specific Populations,No clinically significant differences
same,Tmax,"[1]; human, in vivo, oral, read-out: time to maximum concentration (Tmax)",1 h
same,bioavailability,"[1]; human, in vivo, po, read-out: estimated oral bioavailability",≥ 85%
same,half-life,"[1]; human, oral, CYP2C19 normal metabolizers (NMs)",144 to 216 h
same,half-life,"[1]; human, oral, CYP2C19 poor metabolizers (PMs)",552 h
same,exposure vs dose,[1]; multiple once-daily doses of 1 mg to 15 mg,increases generally dose proportionally
same,higher exposures in patients with HCM compared to healthy subjects,[1]; same dose level,170%
same,peak-to-trough plasma concentration ratio,"[1]; steady-state, once daily dosing",approximately 1.5
same,inhibition of CYP2C19,CYP2C19 [2],not an inhibitor
same,QTc interval,"healthy volunteers; healthy volunteers, multiple doses up to 25 mg once daily",concentration-dependent increase in the QTc interval
same,QTc interval,healthy volunteers; similar exposures during single-dose studies,No acute QTc changes
same,inhibition of CYP2D6,CYP2D6,not an inhibitor
same,genotoxicity,lymphocyte,not genotoxic
same,embryo-fetal findings,"pregnant rabbits; pregnant rabbits, oral, period of organogenesis, doses of 1.2 mg/kg/day and higher",fetal malformations (visceral and skeletal) were increased
same,Plasma exposure (AUC) at the no-effect dose for embryo-fetal development vs exposure in humans at the MRHD,pregnant rabbits; rabbits,0.4 times
same,effect on mavacamten Cmax,CYP2C19 [3],no effect
same,mavacamten AUCinf increase,CYP2C19 [3],48%
same,inhibition of MATE2-K,MATE2-K,does not inhibit
same,exposure (AUC) increase,[4],up to 220%
same,inhibition of OATs,[5],does not inhibit
same,events after overdose,"[6]; one subject, single dose of 144 mg, subject recovered","serious adverse events including vasovagal reaction, hypotension, and asystole"
same,outcome after accidental ingestion,[6]; three 15 mg capsules,infant death
same,dose recovered in feces,[7],7%
same,dose recovered in feces unchanged,[7],1%
same,dose recovered in urine,[7],85%
same,dose recovered in urine unchanged,[7],3%
same,inhibition of CYP2C9,CYP2C9,not an inhibitor
same,Other findings,dogs,QTc prolongation
same,Plasma exposure (AUC) at the NOAEL vs human exposure (AUC) at the MRHD,dogs,0.3 times
same,Noted toxicities,dogs; 0.06 to 10 mg/kg/day orally,"echocardiographic findings, reduction in systolic function, cardiac dilation, and death"
same,Other findings,rats,cardiac osseous metaplasia
same,Plasma exposure (AUC) at the NOAEL vs human exposure (AUC) at the MRHD,rats,0.1 times
same,heart weights,rats,increased heart weights
same,Noted toxicities,rats; 0.06 to 10 mg/kg/day orally,"echocardiographic findings, reduction in systolic function, cardiac dilation, and death"
same,genotoxicity,[8],not genotoxic
same,solubility,Solubility; DMSO and NMP,freely soluble
same,solubility,Solubility; methanol and ethanol,sparingly soluble
same,solubility,Solubility; water and aqueous buffers at pH 2-10,practically insoluble
same,genotoxicity,rat,not genotoxic
same,inhibition of P-gp,P-gp,does not inhibit
same,inhibition of OCTs,[9],does not inhibit
same,inhibition of CYP3A4,CYP3A4,not an inhibitor
same,no-observed-adverse-effect level (NOAEL),"pregnant rats; pre/postnatal development study, rats, highest dosage level tested",1.5 mg/kg/day
same,effects in dams or offspring,"pregnant rats; pregnant rats, oral 0.3 to 1.5 mg/kg/day, gestation Day 6 to lactation/post-partum Day 20",No adverse effects were observed
same,metabolized through CYP2C19,CYP2C19 [10],74%
same,inhibition of CYP1A2,CYP1A2,does not inhibit
same,participants experiencing 20% or greater reductions in LVEF,healthy subjects,3 of 8
